Here are results for 3 molecules from patent publication US20080039485A1, “LOW-DOSE-LONG-TERM PHARMACEUTICAL COMPOSITION COMPRISING CAMPTOTHECIN DERIVATIVES FOR THE TREATMENT OF CANCERS” (TARGETGEN BIOTECHNOLOGY CO., LTD., priority 2006, published 2008).

For series [1] the following is noted: well known in the art; cited from earlier work.
Series [2] has as its system human colon cancer Colo-205 cells. In words: MTT assay of cell growth, Colo-205. The series is classed as cell-based. As to the method:
(§1) Two human colon cancer cell lines, Colo-205 (ATCC accession No. CCL-222) and HT-29 (ATCC accession No. HTB-38), were used in this study. Cells were treated with 0.2, 0.76, 1.52, 7.62, 15.24, 22.87, 30.49, 38.11, 45.73 or 53.35 μM 10-HCPT or CPT-11 for 1-3 days, and the relative number of the viable cells was determined by MTT assay as described below.
(§2) Cells were seeded in a 24-well cell culture cluster (Costar, Cambridge, Mass.) at a density of 1×10^6 cells per mL and cultured overnight prior to drug treatment. After 10-HCPT or CPT-11 treatment for 3 days, the medium was discarded and replaced with an equal volume (0.5 mL) of fresh medium containing 0.456 mg/mL 3-[4,5-dimethylthiazol-2-yl]-2,5-diphenyl-tetrazolium bromide (MTT; Sigma Chemical Company) and incubated for 2 hours at 37° C. in the dark. The medium was discarded, and cells were then combined with […] dimethyl sulfoxide (Sigma Chemical Company) to dissolve the formazan produced. Cell viability was determined according to the calorimetric comparison by reading optical density (OD) values from a microplate reader (Spectra Max 250; Spectra Diode Laboratories, CA) at an absorption wavelength of 570 nm.
Background: Tetrazolium assays rely on reduction of a dye to a coloured formazan, in cell work by metabolically active cells.

For series [3], the system named is human colon cancer HT-29 cells. In words: MTT assay of cell growth, HT-29. The series is classed as cell-based. The note with it: HT-29, days 1-3, MTT. As to the method: as §1, §2

In the case of `CC[C@@]1(O)C(=O)OCc2c1cc1n(c2=O)Cc2cc3ccccc3nc2-1` [CPT, Camptothecin], the water-solubility entry in series [1] is recorded as “water-insoluble”.
For `CC[C@@]1(O)C(=O)OCc2c1cc1n(c2=O)Cc2cc3c(CN(C)C)c(O)ccc3nc2-1` [topotecan], the water-solubility result in series [1] is “better water-solubility than CPT”.
With irinotecan [CPT-11], the “concentration at which significant growth inhibition was observed” value in series [2] (Colo-205, day 2 and day 3, MTT, vs vehicle controls) turned out to be 22.87 µM. Moreover, the “concentration at which complete growth inhibition was observed” value in series [2] (Colo-205, days 1-3, MTT) stood at 38.11 µM; in series [3], 45.73 µM. Further, the water-solubility result in series [1] is given as “better water-solubility than CPT”.
